The record followed here is patent US8026257B2 (Bristol-Myers Squibb Company, priority 2007, dated 2011).

In one assay the target is T1, NK-1 (Homo sapiens, UniProt P25103).
T1 construct: 30 ul/well of a 2×U373 membrane preparation
The experiment in a line: NK1 radioligand binding assay ([125I]Substance P, U373 membranes). The following applies: U373 cell membranes, 200 pM [125I]Substance P, 1 hour at room temperature. The method, boiled down: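 Displacement of Kd-level [125I]Substance P (400 pM 2× stock) from U373 membranes in pH 7.5 Tris-Cl/MgCl2 buffer with protease inhibitors, 1 h, room temperature. Filtration onto GF/B, then scintillation counting. Percent inhibition, referenced to DMSO and L-733,060 wells, fitted by four-parameter equation to give IC50; triplicate plates.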

In a further assay the target is hSERT (Homo sapiens, UniProt P31645). Briefly: SERT radioligand binding assay ([125I]RTI-55, HEK-hSERT membranes). The following applies: HEK-293 hSERT membranes, 260 pM [125I]RTI-55, 1 hour at room temperature; for pIC50: read-out: SERT IC50. The method, boiled down:
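IC50 values derive from four-parameter fits of triplicate percent-inhibition curves, with DMSO as 0% and fluoxetine as 100%. Binding used [125I]RTI-55 at its Kd (520 pM 2× solution) and HEK-hSERT membranes (15 ug/ml 2×) in Tris/NaCl/KCl, pH 7.5, 1 hour, room temperature. Filter-bound radioactivity was counted.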

Molecules are shown by their SMILES. pIC50: −log10 of the molar value. Counter-ions that a name gives are not always drawn. Like-named read-outs stand apart in the source and are kept apart here.

hSERT, sequence (P31645 whole entry): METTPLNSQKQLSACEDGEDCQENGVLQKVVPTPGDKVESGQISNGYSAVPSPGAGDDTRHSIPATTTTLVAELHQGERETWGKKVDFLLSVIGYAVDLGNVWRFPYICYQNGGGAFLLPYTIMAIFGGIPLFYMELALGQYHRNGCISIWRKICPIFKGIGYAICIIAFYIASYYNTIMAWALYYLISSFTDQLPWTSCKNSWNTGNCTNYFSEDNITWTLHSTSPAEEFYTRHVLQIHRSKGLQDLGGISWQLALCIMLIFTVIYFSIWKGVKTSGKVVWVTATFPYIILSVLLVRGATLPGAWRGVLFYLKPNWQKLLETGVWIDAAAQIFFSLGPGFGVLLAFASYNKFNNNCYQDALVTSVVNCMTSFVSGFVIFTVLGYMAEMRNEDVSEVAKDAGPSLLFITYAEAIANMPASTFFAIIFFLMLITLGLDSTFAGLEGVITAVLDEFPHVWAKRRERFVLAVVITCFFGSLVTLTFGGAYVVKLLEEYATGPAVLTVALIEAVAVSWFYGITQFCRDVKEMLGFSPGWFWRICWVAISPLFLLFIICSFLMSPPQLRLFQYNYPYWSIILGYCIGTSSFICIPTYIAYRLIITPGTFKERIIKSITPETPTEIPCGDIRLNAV
T1 sequence (P25103 whole entry): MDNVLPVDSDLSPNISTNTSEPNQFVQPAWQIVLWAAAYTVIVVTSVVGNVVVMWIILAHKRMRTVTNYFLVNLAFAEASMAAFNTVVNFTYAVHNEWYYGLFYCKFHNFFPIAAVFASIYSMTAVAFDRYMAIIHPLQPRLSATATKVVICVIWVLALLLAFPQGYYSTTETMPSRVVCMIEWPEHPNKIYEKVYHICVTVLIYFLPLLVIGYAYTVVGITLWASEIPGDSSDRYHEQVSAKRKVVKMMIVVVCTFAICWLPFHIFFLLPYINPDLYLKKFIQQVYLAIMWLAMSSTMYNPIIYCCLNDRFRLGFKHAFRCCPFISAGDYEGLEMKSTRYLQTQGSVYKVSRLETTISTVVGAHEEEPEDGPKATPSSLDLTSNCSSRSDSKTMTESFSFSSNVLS

In general, pIC50 refers to the IC50 on a negative log10 scale, so that one unit is a factor of ten. `CN1CCC(COCc2cc(C(F)(F)F)cc3cnn(C)c23)(c2ccc(F)cc2)CC1` [Example 19, 7-(((4-(4-Fluorophenyl)-1-methylpiperidin-4-yl)methoxy)methyl)-1-methyl-5-(trifluoromethyl)-1H-indazole]: the pIC50 at NK-1 and at hSERT was 7.00 to 11.00 throughout.
For the compound `c1ccc(C2(COCc3cccc4cn[nH]c34)CCNCC2)cc1` [Example 34, 7-(((4-Phenylpiperidin-4-yl)methoxy)methyl)-1H-indazole], the pIC50 at NK-1 is 6.52 to 7.00; on hSERT it was 7.00 to 11.00.
The matching figures for `FC(F)(F)c1cc(COCC2(c3ccccc3)CCNCC2)c2[nH]nc(C3CC3)c2c1` [Example 35, 3-Cyclopropyl-7-(((4-phenylpiperidin-4-yl)methoxy)methyl)-5-(trifluoromethyl)-1H-indazole]: 7.00 to 11.00 and 7.00 to 11.00.
Take `FC(F)(F)c1cc(COCC2(c3ccccc3)CCNCC2)c2[nH]nc(Br)c2c1` [Example 36, 3-Bromo-7-(((4-phenylpiperidin-4-yl)methoxy)methyl)-5-(trifluoromethyl)-1H-indazole]: the pIC50 at NK-1 and at hSERT was 7.00 to 11.00 throughout.
Take `Cc1n[nH]c2c(COCC3(c4ccccc4)CCNCC3)cc(C(F)(F)F)cc12` [Example 37, 3-Methyl-7-(((4-phenylpiperidin-4-yl)methoxy)methyl)-5-(trifluoromethyl)-1H-indazole]: the negative logarithm of the IC50 (pIC50) on NK-1 and at hSERT was 7.00 to 11.00 each time.
With `c1ccc(C2(COCc3cc(C4CC4)cc4cn[nH]c34)CCNCC2)cc1` [Example 45, 5-Cyclopropyl-7-(((4-phenylpiperidin-4-yl)methoxy)methyl)-1H-indazole], the pIC50 at NK-1 and at hSERT was 7.00 to 11.00 throughout.
With `CC(OCC1(c2ccc(F)cc2)CCN(C)CC1)c1cc(N(C)C)cc2cn[nH]c12` (centres unmarked) [Example 51, 7-(1-((4-(4-Fluorophenyl)-1-methylpiperidin-4-yl)methoxy)ethyl)-N,N-dimethyl-1H-indazol-5-amine], the pIC50 at NK-1 and at hSERT was 7.00 to 11.00 in each case.
By IC50 is commonly meant the concentration that gives 50% inhibition. For `CN1CCC(COCc2cc(-c3ccc(C#N)cc3)cc3cnn(C4CC4)c23)(c2ccccc2)CC1` [Example 65, 4-(1-Cyclopropyl-7-(((1-methyl-4-phenylpiperidin-4-yl)methoxy)methyl)-1H-indazol-5-yl)benzonitrile], on NK-1, the pIC50 was 6.52 to 7.00. Also, at hSERT (SERT IC50 (nM)), the 50% inhibitory concentration (IC50) is 0.01 to 100 nM.
With `CN1CCC(COCc2cc(C(F)(F)F)cc3cc[nH]c23)(c2ccccc2)CC1` [Example 66, 7-(((1-Methyl-4-phenylpiperidin-4-yl)methoxy)methyl)-5-(trifluoromethyl)-1H-indole], the pIC50 at NK-1 and at hSERT was 7.00 to 11.00 in each case.
Consider `CN1CCC(COCc2cc(C(F)(F)F)cc3ccn(C)c23)(c2ccccc2)CC1` [Example 67, 1-Methyl-7-(((1-methyl-4-phenylpiperidin-4-yl)methoxy)methyl)-5-(trifluoromethyl)-1H-indole], for which the pIC50 at NK-1 and at hSERT was 7.00 to 11.00 in each case.
For the compound `CN1CCC(COCc2cc(C(F)(F)F)cc3cc[nH]c23)(c2ccc(F)cc2)CC1` [Example 68, 7-(((1-Methyl-4-(4-fluorophenyl)piperidin-4-yl)methoxy)methyl)-5-(trifluoromethyl)-1H-indole], the pIC50 on NK-1 and at hSERT was 7.00 to 11.00 throughout.
With `CN1CCC(COCc2cc(C(F)(F)F)cc3ccn(C)c23)(c2ccc(F)cc2)CC1` [Example 69, 1-Methyl-7-(((1-methyl-4-(4-fluorophenyl)piperidin-4-yl)methoxy)methyl)-5-(trifluoromethyl)-1H-indole], the negative logarithm of the IC50 (pIC50) on NK-1 and at hSERT was 7.00 to 11.00 throughout.
Regarding `CN1CCC(COCc2cc(C(F)(F)F)cc3[nH]ccc23)(c2ccccc2)CC1` [Example 76, 4-(((1-Methyl-4-phenylpiperidin-4-yl)methoxy)methyl)-6-(trifluoromethyl)-1H-indole 2,2,2-trifluoroacetate], the pIC50 on NK-1 and on hSERT was 7.00 to 11.00 in each case.
With `CN1CCC(COCc2cc(C(F)(F)F)cc3c2ccn3C)(c2ccccc2)CC1` [Example 77, 1-Methyl-4-(((1-methyl-4-phenylpiperidin-4-yl)methoxy)methyl)-6-(trifluoromethyl)-1H-indole 2,2,2-trifluoroacetate], the pIC50 on NK-1 and at hSERT was 7.00 to 11.00 in each case.
Take `CN1CCC(COCc2cc(C(F)(F)F)cc3nnn(C)c23)(c2ccc(F)cc2)CC1` [Example 78, 7-(((4-(4-Fluorophenyl)-1-methylpiperidin-4-yl)methoxy)methyl)-1-methyl-5-(trifluoromethyl)-1H-benzo[d][1,2,3]triazole]: the pIC50 is 6.52 to 7.00 on NK-1 and 7.00 to 11.00 on hSERT.
The matching figures for `CN1CCC(COCc2cc(C(F)(F)F)cc3nn(C)nc23)(c2ccc(F)cc2)CC1` [Example 79, 4-(((4-(4-Fluorophenyl)-1-methylpiperidin-4-yl)methoxy)methyl)-2-methyl-6-(trifluoromethyl)-2H-benzo[d][1,2,3]triazole]: 7.00 to 11.00 and 7.00 to 11.00.
For the compound `CN1CCC(COCc2cc(C(F)(F)F)cc3c2nnn3C)(c2ccc(F)cc2)CC1` [Example 80, 4-(((4-(4-Fluorophenyl)-1-methylpiperidin-4-yl)methoxy)methyl)-1-methyl-6-(trifluoromethyl)-1H-benzo[d][1,2,3]triazole], the values for the pIC50 on NK-1 and at hSERT were 6.52 to 7.00 and 7.00 to 11.00, respectively.
Regarding `CN1CCC(COCc2nc3cc(-c4ccc(C#N)cc4)ccc3n2CC2CC2)(c2ccccc2)CC1` [Example 81, 4-(1-(Cyclopropylmethyl)-2-(((1-methyl-4-phenylpiperidin-4-yl)methoxy)methyl)-1H-benzo[d]imidazol-5-yl)benzonitrile], the pIC50 was below 6.52 on NK-1 and 7.00 to 11.00 at hSERT.
In the case of `CN1CCC(COCc2nc3cc(Br)ccc3n2CC2CC2)(c2ccccc2)CC1` [Example 82, 5-Bromo-1-(cyclopropylmethyl)-2-(((1-methyl-4-phenylpiperidin-4-yl)methoxy)methyl)-1H-benzo[d]imidazole], the negative logarithm of the IC50 (pIC50) at NK-1 was below 6.52; at hSERT it was 7.00 to 11.00.
The matching figures for `CN1CCC(COCc2nc3ccc(Br)cc3n2CC2CC2)(c2ccccc2)CC1` [Example 83, 6-Bromo-1-(cyclopropylmethyl)-2-(((1-methyl-4-phenylpiperidin-4-yl)methoxy)methyl)-1H-benzo[d]imidazole]: below 6.52 and 7.00 to 11.00.
The matching figures for `CN1CCC(COCc2nc3cc(-c4ccc(Cl)cc4Cl)ccc3n2CC2CC2)(c2ccccc2)CC1` [Example 84, 1-(Cyclopropylmethyl)-5-(2,4-dichlorophenyl)-2-(((1-methyl-4-phenylpiperidin-4-yl)methoxy)methyl)-1H-benzo[d]imidazole]: below 6.52 and 7.00 to 11.00.
The matching figures for `CN1CCC(COCc2nc3ccc(C4CC4)cc3n2CC2CC2)(c2ccccc2)CC1` [Example 85, 6-Cyclopropyl-1-(cyclopropylmethyl)-2-(((1-methyl-4-phenylpiperidin-4-yl)methoxy)methyl)-1H-benzo[d]imidazole]: below 6.52 and 7.00 to 11.00.
In the case of `CN1CCC(COCc2nc3cc(C(F)(F)F)ccc3n2CC2CC2)(c2ccccc2)CC1` [Example 86, 1-(Cyclopropylmethyl)-2-(((1-methyl-4-phenylpiperidin-4-yl)methoxy)methyl)-5-(trifluoromethyl)-1H-benzo[d]imidazole], the figures for the pIC50 at NK-1 and at hSERT were below 6.52 and 7.00 to 11.00, respectively.
Consider `CN1CCC(COCc2nc3ccc(C(F)(F)F)cc3n2CC2CC2)(c2ccccc2)CC1` [Example 87, 1-(Cyclopropylmethyl)-2-(((1-methyl-4-phenylpiperidin-4-yl)methoxy)methyl)-6-(trifluoromethyl)-1H-benzo[d]imidazole], for which the pIC50 on NK-1 was below 6.52; on hSERT, 7.00 to 11.00.
For `COC(=O)C(OCC1(c2ccc(F)cc2)CCN(C)CC1)c1cc(Cl)cc2cn[nH]c12` (centres unmarked) [Example 89, Methyl 2-(5-chloro-1H-indazol-7-yl)-2-((4-(4-fluorophenyl)-1-methylpiperidin-4-yl)methoxy)acetate trifluoroacetic acid salt], the negative-log IC50 (pIC50) at NK-1 was below 6.52; at hSERT, 7.00 to 11.00.
The matching figures for `CN1CCC(COC(C(=O)O)c2cc(Cl)cc3cn[nH]c23)(c2ccc(F)cc2)CC1` (centres unmarked) [Example 90, 2-(5-Chloro-1H-indazol-7-yl)-2-((4-(4-fluorophenyl)-1-methylpiperidin-4-yl)methoxy)acetic acid trifluoroacetic acid salt]: below 6.52 and 7.00 to 11.00.
On the same counts, the results for `CN1CCC(COC(C(=O)N(C)C)c2cc(Cl)cc3cn[nH]c23)(c2ccc(F)cc2)CC1` (centres unmarked) [Example 91, 2-(5-Chloro-1H-indazol-7-yl)-2-((4-(4-fluorophenyl)-1-methylpiperidin-4-yl)methoxy)-N,N-dimethylacetamide trifluoroacetic acid salt] are below 6.52 and 7.00 to 11.00.
On the same counts, the results for `CN1CCC(COC(CO)c2cc(Cl)cc3cn[nH]c23)(c2ccc(F)cc2)CC1` (centres unmarked) [Example 92, 2-(5-Chloro-1H-indazol-7-yl)-2-((4-(4-fluorophenyl)-1-methylpiperidin-4-yl)methoxy)ethanol trifluoroacetic acid salt] are 7.00 to 11.00 and 7.00 to 11.00.
